One data set has as its system Homo sapiens. Briefly: (§1) Evaluation of pharmacokinetic parameters for Estradiol after multiple topical applying Estradiol transdermal systems to the abdomen or the buttocks of 17 healthy, postmenopausal female subjects. It counts as ADME, organism-based. On the set-up: dose 0.075 mg/day, dose 0.1 mg/day, dose 0.0375 mg/day, dose 0.05 mg/day, route topical to abdomen, route topical to buttocks. The conditions noted are these: in vivo, topical_or_ocular, dosed compound id 17, dosed compound name ESTRADIOL, gender female, regimen Multiple dose, tissue Plasma.

Data set [1] is described as follows: as §1. It counts as ADME, organism-based. On the set-up: dose 0.075 mg/day, dose 0.1 mg/day, dose 0.0375 mg/day, dose 0.05 mg/day, route topical to abdomen, route topical to buttocks. The conditions noted are these: human, in vivo, topical or ocular; dose 0.05 mg/day, dosed compound id 17, dosed compound name ESTRADIOL, gender female, regimen Multiple dose, route topical to abdomen, tissue Plasma; read-out: Cmin(80hr).

The mark [2] stands for this setting: dose 0.0375 mg/day, route topical to abdomen.
[3] abbreviates: dose 0.075 mg/day, route topical to abdomen.
[4] abbreviates: dose 0.1 mg/day, route topical to abdomen.
The mark [5] stands for this setting: dose 0.1 mg/day, route topical to buttocks.

Results on one molecule are retold here after ChEMBL document CHEMBL3832067, “DailyMed|setid=d28bec8f-762e-4f05-a20d-96a42970d6a7 | Estradiol - estradiol patch|Mylan Pharmaceuticals Inc”.

Consider `C[C@]12CC[C@@H]3c4ccc(O)cc4CC[C@H]3[C@@H]1CC[C@@H]2O` [ESTRADIOL], for which the Cavg in the data set on Homo sapiens (setting [2]) was determined as 0.034 ng/mL; in the data set with Homo sapiens (dose 0.05 mg/day, route topical to abdomen), 0.057 ng/mL; with Homo sapiens (setting [3]), 0.072 ng/mL; in the data set with Homo sapiens (setting [4]), 0.089 ng/mL; in the data set with Homo sapiens (setting [5]) it was 0.104 ng/mL. The “Cmin(84hr)” value in the data set with Homo sapiens (setting [2]) is 0.03 ng/mL; in the data set on Homo sapiens (setting [3]), 0.06 ng/mL; in the data set with Homo sapiens (setting [4]) it was 0.09 ng/mL; with Homo sapiens (setting [5]), 0.085 ng/mL. Further, the concentration at 80 h in data set [1] worked out at 0.041 ng/mL.
